Laboratory results taken from patent publication US12692274B2, “Tetrahydroisoquinoline derivatives for the treatment of red blood disorders and inflammatory diseases” (Sanofi, priority 2020, dated 2026).
Several values for one entry are separate records, joined by “and”; a condition that tells them apart may be missing. Equal values may be shown once.

Key:
[1] = system: NQO1 activation in BEAS-2B cells; test: BEAS-2B cellular MTT assay of NQO1 activation, 0% HSA; format: cell-based; conditions: serum free, read-out: BEAS EC50 (nM) serum free
How it was run: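 For the 0% HSA condition, cells were seeded into collagen plates in HSA-free medium. Culture was BEAS-2B in BEBM plus BEGM SingleQuots lacking GA-1000, held under 70% confluence, at a seeding density reaching 95-100% confluence by 48 h.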

[2] = system: NQO1 activation in BEAS-2B cells; test: BEAS-2B cellular MTT assay of NQO1 activation, 0.3% HSA; format: cell-based; conditions: BEAS+, read-out: BEAS+ EC50
How it was run: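 MTT read-out in BEAS-2B cells grown in BEBM with SingleQuots, no GA-1000, kept below 70% confluence; plates coated with collagen, with 0.3% or 0% HSA medium, seeded to 95-100% confluency at 48 h, 37 °C, 5% CO2.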

[3] = biological target: HIS-Keap1 full length / Biotin-Nrf2 (16-mer) (Homo sapiens, UniProt Q14145); test: biochemical
Chain of HIS-Keap1 full length / Biotin-Nrf2 (16-mer) (Q14145 whole entry): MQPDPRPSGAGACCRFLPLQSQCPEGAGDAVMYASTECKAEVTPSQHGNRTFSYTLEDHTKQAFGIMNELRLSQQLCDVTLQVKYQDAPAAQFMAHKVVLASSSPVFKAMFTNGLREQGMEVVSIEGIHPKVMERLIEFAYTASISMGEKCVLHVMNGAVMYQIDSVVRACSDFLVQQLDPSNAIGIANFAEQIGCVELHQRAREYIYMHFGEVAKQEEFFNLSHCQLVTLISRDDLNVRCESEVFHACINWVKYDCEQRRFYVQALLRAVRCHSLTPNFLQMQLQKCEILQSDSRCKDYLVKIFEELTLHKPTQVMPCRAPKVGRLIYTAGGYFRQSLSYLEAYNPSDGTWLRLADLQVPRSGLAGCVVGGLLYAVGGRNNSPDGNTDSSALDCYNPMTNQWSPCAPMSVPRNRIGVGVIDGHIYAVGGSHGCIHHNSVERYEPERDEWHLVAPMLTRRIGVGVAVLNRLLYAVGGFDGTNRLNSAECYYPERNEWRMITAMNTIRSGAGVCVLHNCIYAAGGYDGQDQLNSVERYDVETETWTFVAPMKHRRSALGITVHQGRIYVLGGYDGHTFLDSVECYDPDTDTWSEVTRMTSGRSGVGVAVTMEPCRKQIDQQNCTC

Molecule Cc1cc2ccc1OCCCCCCn1nnc3c(C)c(ccc31)C(CC(=O)O)c1ccc3c(c1)CN(CC3)C2=O (stereo not shown) [Compound 260] has an EC50 ([1]; Homo sapiens) of 400 nM, an EC50 [1] of 403 nM and an EC50 [2] of 484 nM. It also gave an EC50 ([2]; Homo sapiens) of 337 nM and an IC50 [3] of 6 nM.

Cc1cc2ccc1OCCCCCn1nnc3c(C)c(ccc31)C(CC(=O)O)c1ccc3c(c1)CN(CC3)C2=O (stereo not shown) [Compound 261] showed an EC50 ([1]; Homo sapiens) of 89.8 nM, an EC50 [1] of 93 nM and an EC50 [2] of 113 nM. For the same molecule, the EC50 ([2]; Homo sapiens) was 198 nM and the IC50 [3] was 3 nM.

In the case of Cc1c2ccc3c1nnn3CCCCCc1cc(F)c(c(F)c1)C(=O)N1CCc3ccc(cc3C1)C2CC(=O)O (stereo not shown) [Compound 263], the EC50 ([1]; Homo sapiens) is reported as 18.3 nM, the EC50 ([2]; Homo sapiens) is reported as 20.4 nM and the IC50 [3] is reported as 2.7 nM and 3 nM.

With Cc1c2ccc3c1nnn3CCCCCCc1ccc(cc1F)C(=O)N1CCc3ccc(cc3C1)C2CC(=O)O (stereo not shown) [Compound 264] the EC50 ([1]; Homo sapiens) was 3.7 nM, the EC50 ([2]; Homo sapiens) was 5.4 nM and the IC50 [3] was 2.7 nM and 2.9 nM.

With Cc1c2ccc3c1nnn3CCCCCc1ccc(c(F)c1)C(=O)N1CCc3ccc(cc3C1)C2CC(=O)O (stereo not shown) [Compound 266] the EC50 ([1]; Homo sapiens) was 2.1 nM, the EC50 ([2]; Homo sapiens) was 2.6 nM and the IC50 [3] was 0.5 nM.

In the case of Cc1c2ccc3c1nnn3CCCCCc1ccc(cc1F)C(=O)N1CCc3ccc(cc3C1)C2CC(=O)O (stereo not shown) [Compound 267], the EC50 ([1]; Homo sapiens) is reported as 3.9 nM, the EC50 ([2]; Homo sapiens) is reported as 5.3 nM and the IC50 [3] is reported as 2.4 nM and 2.3 nM.

In the case of O=C(O)CC1c2ccc(nc2)OCCCCCOc2ccc(c(F)c2)C(=O)N2CCc3ccc1cc3C2 (stereo not shown) [Compound 268], the EC50 ([1]; Homo sapiens) is reported as 505 nM, the EC50 ([2]; Homo sapiens) is reported as 561 nM and the IC50 [3] is reported as 68.1 nM and 70.7 nM.

For Cc1c2ccc3c1nnn3CCCCCCOc1ccc(cc1F)C(=O)N1CCc3ccc(cc3C1)C2CC(=O)O (stereo not shown) [Compound 270], the EC50 ([1]; Homo sapiens) was 56.5 nM, the EC50 ([2]; Homo sapiens) was 55.9 nM and the IC50 [3] was 4 nM and 3.6 nM.

With Cc1c2ccc3c1nnn3CCCCCCc1ccc(c(F)c1)C(=O)N1CCc3ccc(cc3C1)C2CC(=O)O (stereo not shown) [Compound 272] the EC50 ([1]; Homo sapiens) was 2.5 nM, the EC50 ([2]; Homo sapiens) was 3.3 nM and the IC50 [3] was 1.1 nM and 1.3 nM.

Cc1c2ccc3c1nnn3CCCCCOc1ccc(cc1F)C(=O)N1CCc3ccc(cc3C1)C2CC(=O)O (stereo not shown) [Compound 275] showed an EC50 ([1]; Homo sapiens) of 123 nM, an EC50 ([2]; Homo sapiens) of 85.9 nM and an IC50 [3] of 1.9 nM.

In the case of O=C(O)CC1c2ccc3c(c2)CN(CC3)C(=O)c2ccc(cc2)CCCCCn2nnc3cc1ccc32 (stereo not shown) [Compound 276], the EC50 ([1]; Homo sapiens) is reported as 88.5 nM, the EC50 ([2]; Homo sapiens) is reported as 49.3 nM and the IC50 [3] is reported as 2.2 nM and 2 nM and 2.1 nM.

With O=C(O)CC1c2cnc(nc2)OCCCCCc2ccc(cc2)C(=O)N2CCc3ccc1cc3C2 (stereo not shown) [Compound 277, 2-(2-oxo-12-oxa-1,14,28-triazapentacyclo[16.5.3.23,6.213,16.021,25]triaconta-3,5,13(28),14,16(27),18(26),19,21(25),29-nonaen-17-yl)acetic Acid] the EC50 ([1]; Homo sapiens) was 459 nM, the EC50 ([2]; Homo sapiens) was 3350 nM and the IC50 [3] was 2.5 nM and 1.9 nM and 2.7 nM and 1.7 nM.

In the case of O=C(O)CC1c2ccc3c(c2)CN(CC3)C(=O)c2ccc(cc2F)CCCCCCn2nnc3cc1ccc32 (stereo not shown) [Compound 278], the EC50 ([1]; Homo sapiens) is reported as 136 nM, the EC50 ([2]; Homo sapiens) is reported as 159 nM and the IC50 [3] is reported as 1.8 nM (2×) and 1.4 nM and 1.3 nM.

For CC(C)(C(=O)O)C1c2ccc3c(c2)CN(CC3)C(=O)c2ccc(cc2)CCCCCCn2nnc3cc1ccc32 (stereo not shown) [Compound 279], the EC50 ([1]; Homo sapiens) was 10.8 nM, the EC50 ([2]; Homo sapiens) was 10.7 nM and the IC50 [3] was 2.3 nM and 2.2 nM (2×) and 2.1 nM.

O=C(O)CC1c2ccc3c(c2)CN(CC3)C(=O)c2ccc(cc2)CCCCCCn2nnc3cc1ccc32 (stereo not shown) [Compound 280] was tested, and the EC50 ([1]; Homo sapiens) was 108 nM, the EC50 ([2]; Homo sapiens) was 114 nM and the IC50 [3] was 2.3 nM (2×) and 2.8 nM (2×).

In the case of Cc1c2ccc3c1nnn3CCCCCOc1ccc(c3ccccc13)C(=O)N1CCc3ccc(cc3C1)C2CC(=O)O (stereo not shown) [Compound 283], the EC50 ([1]; Homo sapiens) is reported as 450 nM, the EC50 ([2]; Homo sapiens) is reported as 418 nM and the IC50 [3] is reported as 1.1 nM and 1.7 nM.

For Cc1c2ccc3c1nnn3CCCCCCOc1ccc(c3ccccc13)C(=O)N1CCc3ccc(cc3C1)C2CC(=O)O (stereo not shown) [Compound 284], the EC50 ([1]; Homo sapiens) was 3.4 nM, the EC50 ([2]; Homo sapiens) was 22.8 nM and the IC50 [3] was 0.4 nM and 0.3 nM.

Cc1c2ccc3c1nnn3CCCCCc1ccc(cc1)C(=O)N1CCc3ccc(cc3C1)[C@@H]2CC(=O)O [Compound 285] was tested, and the EC50 ([1]; Homo sapiens) was 4.7 nM, the EC50 ([2]; Homo sapiens) was 9.8 nM and the IC50 [3] was 0.3 nM and 0.5 nM.

Cc1c2ccc3c1nnn3CCCCCc1ccc(cc1)C(=O)N1CCc3ccc(cc3C1)[C@H]2CC(=O)O [Compound 286] was tested, and the EC50 ([1]; Homo sapiens) was 15.8 nM, the EC50 ([2]; Homo sapiens) was 44.5 nM and the IC50 [3] was 0.7 nM.

With CC(C)(C(=O)O)C1c2ccc3c(c2)CN(CC3)C(=O)c2ccc(cc2F)OCCCCCCn2nnc3cc1ccc32 (stereo not shown) [Compound 288] the EC50 ([1]; Homo sapiens) was 2.7 nM, the EC50 ([2]; Homo sapiens) was 34.3 nM and the IC50 [3] was 1.8 nM and 2.3 nM.

With Cc1cc2ccc1C(=O)N1CCc3ccc(cc3C1)[C@H]([C@H](C)C(=O)O)c1ccc3c(c1)nnn3CCCCCCO2 [Compound 292] the EC50 ([1]; Homo sapiens) was 349 nM, the EC50 ([2]; Homo sapiens) was 637 nM and the IC50 [3] was 7.7 nM and 5.9 nM.
